Measurements from patent publication US20120003303A1, “ORAL ENTERIC ANTIDEPRESSANT FORMULATION” (CeNeRx Biopharma, Inc, priority 2009, published 2012).
Where two headings read alike, the source gives them in different places.

What was measured:
MAO-B = molecular target: T1, MAO-B (Homo sapiens, UniProt P27338); experiment: inhibitory action on MAO-B (statement, no method given); type: biochemical
T1 sequence (P27338 1-520): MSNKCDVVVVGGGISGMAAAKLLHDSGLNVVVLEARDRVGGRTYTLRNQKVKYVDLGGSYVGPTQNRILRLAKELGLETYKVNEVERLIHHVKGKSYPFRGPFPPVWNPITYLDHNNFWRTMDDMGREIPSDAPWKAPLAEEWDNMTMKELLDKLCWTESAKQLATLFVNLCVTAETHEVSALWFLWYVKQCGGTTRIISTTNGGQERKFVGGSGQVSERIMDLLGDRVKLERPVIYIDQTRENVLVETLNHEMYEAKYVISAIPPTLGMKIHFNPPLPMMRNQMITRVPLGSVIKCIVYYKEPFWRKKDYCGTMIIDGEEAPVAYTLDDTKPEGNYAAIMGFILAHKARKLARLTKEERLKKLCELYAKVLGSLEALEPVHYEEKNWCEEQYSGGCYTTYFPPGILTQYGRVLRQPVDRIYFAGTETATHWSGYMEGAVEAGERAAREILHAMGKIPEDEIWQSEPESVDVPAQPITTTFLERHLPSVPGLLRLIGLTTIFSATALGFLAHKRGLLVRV

[1] = human plasma pharmacokinetics of orally administered tyramine; type: in vivo
Description: Such pharmaceutical formulations are manufactured in such a way that the product passes unchanged through the stomach of the patient, and dissolves and releases the active ingredient when it leaves the stomach and enters the middle and lower portions of the small intestine. Such formulations can be in tablet or pellet form, where the active ingredient is in the inner part of the tablet or pellet and is enclosed in a film or envelope, the “enteric coating,” which is insoluble in acid environments, such as the stomach, but is soluble in near-neutral environments such as the small intestine.

| inhibitory actions on MAO-B (MAO-B) | time after dosing at which non-detectable levels observed ([1]; human plasma, tyramine with food in a capsule, oral dose of 200 mg) | Tmax ([1]; human plasma, tyramine with food in a capsule, oral dose of 200 mg, read-out: Tmax) | Tmax ([1]; human, plasma, oral, 200 mg, dietary tyramine, absorbed and metabolized in stomach, upper small intestine and liver, read-out: average Tmax) | Compound |
| --- | --- | --- | --- | --- |
| devoid of inhibitory actions on MAO-B | – | – | – | O=S1(=O)c2ccc(F)cc2Oc2cc(OCC(F)(F)F)ccc21 [CX157, 3-fluoro-7-(2,2,2-trifluoroethoxy)phenoxathiin 10,10-dioxide] |
| – | 3 to 4 h | ≤ 1.25 h | 1.25 h | NCCc1ccc(O)cc1 [tyramine] |
